Results on one compound are retold here after patent publication US10106540B2, “HDAC6 inhibitors and their uses” (Universität Regensburg, priority 2014, dated 2018).

The subject of assay [1] is MAXF 401. Nature of the assay: In vitro activity against solid tumor cell lines (FACS analysis method a). The note with it: Homo sapiens, MAXF401, Breast. It counts as cell-based. The method, then: (§1) Human breast cancer cell lines MAXF 401 and MAXF MCF-7 (Oncotest GmbH, Freiburg, Germany)
(§2) The assay is carried out as described in Pietschmann et al., 2012 and Brandl et al. 2012. Briefly, 10^5 cells were fixed in 1 ml 70% EtOH with 0.05% Tween-20 overnight at 4° C. The following day, cells were washed with 3 ml 38 mM sodium citrate, pH 7.4, and incubated for 20 min at 37° C. in 0.5 ml 38 mM sodium citrate, pH 7.4, supplemented with 50 μg/ml propidium iodide and 10 μg/ml RNase-A. DNA contents of the cells were measured by fluorescence-activated cell sorter (FACS). This method allows detection of the apoptotic subG1-fraction, which has a DNA content below 2n due to apoptotic cleavage of DNA. Equally, the cell cycle profile can be assessed with this method.
(§3) The novel HDAC6 inhibitors were tested in a panel of tumor cell lines for cytostatic/toxic activities (see Table 2).
(In general: In flow cytometry, cells or beads pass a laser one at a time.)

Assay [2] relates to MAXF MCF-7. The assay is described as above. The following applies: Homo sapiens, MCF7, Breast. It counts as cell-based. The procedure:
as §1, §2, §3

The test system of assay [3] is HEL leukemic cells. The assay can be described thus: Western blot analysis in HEL leukemic cells (JAK2 V617F). In kind it is cell-based, human. The note with it: 24 h, Western blot. The procedure: Human leukemia cell line HEL with JAK2 V617F mutation (DSMZ Accession No: ACC-11).
The assay is carried out as described in Buchwald et al. 2010 and Buchwald et al. 2013. Briefly, cells were collected and lysed in NET-N buffer (150 mM NaCl, 1 mM EDTA, 50 mM Tris-HCl (pH 7.8), 0.5% Nonidet P-40 (NP-40), 1 mM phenylmethylsulfonyl fluoride, 0.5 mg/ml leupeptin and 0.5 mg/ml pepstatin) followed by mild sonification on ice. Protein lysate ([…]) was boiled in Laemmli buffer and separated on SDS-polyacrylamide gel electrophoresis for western blotting with specific antibodies. All lysates were assessed by Bradford assay for protein concentrations.
For orientation: Immunoblotting shows a protein as a band on a membrane.

For assay [4], the system named is HCT-116 cells. The assay can be described thus: Western blot analysis in HCT-116 colon cancer cells. It counts as cell-based, human. The procedure:
FIG. 5. Various cancer cells were treated for 24 h as shown and tested by Western blot analysis. […] Human colon cancer cell lines RKO (ATCC Accession No: CRL-2577) and HCT-116 (DSMZ Accession No: ACC-581). Western Blot Analysis a […] Protein lysate ([…]) was boiled in Laemmli buffer and separated on SDS-polyacrylamide gel electrophoresis for western blotting with specific antibodies. All lysates were assessed by Bradford assay for protein concentrations.

In assay [5] the test system is HEK293T cells. Nature of the assay: HDAC6 overexpression model in HEK293T cells, Western blot. It counts as cell-based, human. The note with it: 500 nM MARB1, 48 h. The procedure: However, it is mention worth that MARB1 increases the amount of acetylated tubulin in cells with HDAC6 overexpression. 400,000 cells were seeded on a 6 well plate and incubated for 24 h for adapting and the transfection was allowed for 48 h. […] HSP90 and Tubulin were used as loading control. The cells were collected on ice using Trypsin/EDTA. The overexpression was identified by using the HDAC6 antibody described in Antibodies and Plasmids. n=3 (B) The cells were transfected as described previously and collected under sterile conditions using Trypsin/EDTA. Cells were centrifuged and resuspended in new DMEM with FBS and pen/strep. The cells were splitted 1:2 and seeded per sample into two wells. After 24 h adhesion time cells were stimulated with MARB1 for 48 h. Thereafter cells were collected on ice using Trypsin/EDTA and prepared for SDS-PAGE. […] The samples were generated as described previously. HSP90 was used as loading control. n=1 […]
Western Blot analysis method b was used for the blots illustrated in FIGS. 6 to 9 and 11: Equal amounts of proteins were separated with a sodium dodecyl sulfate-polyacrylamide gel electrophoresis (SDS-PAGE) using an electrophoresis buffer by Laemmli with 1% SDS. […] Fluorescence coupled secondary antibodies (LI-COR) were used and the signal was measured on the Odyssey to detect the proteins. […]

Assay [6] has as its system BV173 cells. The assay can be described thus: Cell cycle analysis by PI staining and flow cytometry (FACS method b). The note with it: BV173, PI staining. It counts as cell-based, human. The procedure: 150,000 cells were seeded in 12 well plate and incubated for 2 h for adaption. Cells were harvested on ice and prepared for FACS analysis (following method b). The FACS blots were generated using FACS diva software. n=1
After harvesting the cells on ice and washing them with 1 ml cold PBS, the Pellet were fixed for 1 h in 80% Ethanol by −20° C. After centrifugation the supernatant was discarded and the pellet was resuspended in 333 μl PBS with 10 μg RNase. The cells were incubated 1 h at room temperature with RNase before adding propidium iodide to a final concentration of 16.4 μg/ml and measured by flow cytometry (BD FACS Canto II).

One may read the IC50 as the concentration that gives 50% inhibition. Low readings indicate greater potency, high ones weaker potency. Regarding `CN1C(=O)C2CN(Cc3c2c2ccccc2n3Cc2ccc(C(=O)NO)cc2)C1=O` (centres unmarked) [MARB1, N-Hydroxy-4-((4-methyl-3,5-dioxo-3,4,5,6-tetrahydro-2,6-methano[1,3]diazocino[5,6-b]indol-11(1H)-yl)methyl)benzamide], the IC50 worked out at 2280 nM in assay [1] and 2330 nM in assay [2]. Further, in assay [3], the “concentration with about the same potency in hyperacetylation of tubulin-α” value was roughly 1000 nM. Besides, the “tubulin acetylation and degradation” value was “triggers the hyperacetylation of tubulin without causing its degradation” in assay [4] (1 μM, 24 h (FIG. 5B)); “starts the hyperacetylation of tubulin in colon carcinoma cells (RKO and HCT-116 cells) without destroying it” in assay [4] (HCT-116 cells, 24 h). For the same compound, in assay [5], the “tubulin acetylation in HDAC6 flag transfected cells” value was “high induction of tubulin acetylation”. In assay [6], the “changes in the cell cycle” value was “no changes in the cell cycle”. For the same compound, in assay [6], the subG1 population entry is recorded as “no increase”.
